According to ChEMBL document CHEMBL1151418, “Breviane spiroditerpenoids from an extreme-tolerant Penicillium sp. isolated from a deep sea sediment sample” (J Nat Prod, 2009):
Where a name gives a salt, the structure may show the parent alone.

Legend:
[1] = system: HIV-1 M:B_Lai; experiment: Antiviral activity against HIV-1 M:B_Lai replication in human C8166 cells assessed as inhibition of p24 antigen expression level after 4 days by ELISA; format: functional, organism-based; settings: Human immunodeficiency virus 1, LAI, C8166, 96 h
[2] = system: HeLa; experiment: Growth inhibition of human HeLa cells at 10 ug/mL after 4 hrs by MTT assay; format: functional; settings: read-out: GI
[3] = Cytotoxicity against human C8166 cells after 4 days by MTT assay; format: cell-based

EC50 [1] [µM]	Structure (SMILES)	inhibition of growth at 10 µg/mL [2] [%]	CC50 at 96 h [3] [µM]
0.00871	CC(C)(C)NC(=O)[C@@H]1CN(Cc2cccnc2)CCN1C[C@@H](O)C[C@@H](Cc1ccccc1)C(=O)N[C@H]1c2ccccc2C[C@H]1O [INDINAVIR SULFATE]		
> 50	CC1=CC(=O)C[C@@H]2O[C@@H]3C=C(C)[C@@]45Oc6c(C)c(C)oc(=O)c6[C@@H]4O[C@H](O)[C@]54CC[C@@H]1[C@@]2(C)[C@@H]34 [BREVIONE H]	25.3	
14.7	CC1=CC(=O)C=C[C@]2(C)[C@H]3[C@@H](O)C=C(C)[C@@]4(Cc5c(c(C)c(C)oc5=O)O4)[C@]3(C)CC[C@@H]12 [BREVIONE F]	25.2	> 100
> 50	CC1=CC(=O)C=C[C@]2(C)[C@H]3[C@H](O)C=C(C)[C@@]4(Cc5c(c(C)c(C)oc5=O)O4)[C@]3(C)CC[C@@H]12 [BREVIONE G]	44.9	
